On the set-up of data set [1]: method as in PMID 33016969. The settings on record: cited from earlier work.
Another data set has as its system NKCC. As to conditions: cited from earlier work.
The test system of a further data set is SKMEL-28 and U373 cells. Nature of the data set: Reversibility assay. Type of data set: cell-based, human. The settings on record: after 6 h of treatment, both cell lines. Here is the method:
The reversibility of the effects induced by compounds 13 was evaluated through qualitative microscopic observation of the cell cultures (morphology and confluence of the cell culture) over time after having been exposed or not to the compound for 1, 3 or 6 h. Negative control corresponds to untreated cells while positive control corresponds to cells treated with 13 continuously over the whole experiment. Briefly, 6 × 10^4 cells per well were seeded in 6 well plates and incubated for 24 h before their use. Culture medium was then replaced by fresh medium with or without compound 13. After 1, 3 or 6 h of treatment, cells were washed and the culture medium was renewed. Pictures were taken at different time points starting at t = 0 when the treatment was applied to the cells, 6 h, 24 h and 72 h thereafter.

For data set [2], the target named is chymotrypsin-like activity of the proteasome (Homo sapiens, UniProt P28074). Nature of the data set: Cellular proteasomal chymotrypsin-like activity. Type of data set: cell-based. As to conditions: 13 at 1 µM, 6 h of treatment, both SKMEL-28 and U373. On the procedure:
The chemotrypsin-like, trypsin-like and caspase-like activities of the proteasome were evaluated in cells with the G8660, G8861 and G8761 kits respectively according to the manufacturer’s instructions (Promega, USA). Briefly, the assays are based on the use of short amino-acid sequences coupled with luciferin and that can be specifically cleaved by each catalytic unit of the proteasomal complex. For this purpose, cells were seeded in 96 well plates 24 h before their treatment with 1 (5 µM), 13 (1 µM) for 6 h or with the positive control MG132 (1 µM) for 24 h. At the end of the treatments, cells were washed three times with PBS and permeabilized with digitonin (0.5 mg/mL; 50 µL per well) under shaking for 10 min. Then, 50 µL of a mixture of the substrate of interest and luciferase were added for 15 min under slow shaking. Luminescence levels quantified with the Active-Glo LR-100 luminometer (DSLabs, Suisse) were normalized according the number of viable cells evaluated in parallel in the same conditions by means of MTT assay.

The subject of data set [3] is 60 cancer cell line panel. Nature of the data set: NCI 60 cancer cell line panel testing. Type of data set: cell-based. An excerpt: Cell lines are grouped by cancer type [origin]. Determination of the concentration that reduced by 50 % the
Log10 differences are represented by the bars. If a cell line is more sensitive , the bar is on the right , if it is less
sensitive, the bar is on the left. Similar data are represen ted for the 50 % lethal concentration [LC 50] of each
(1 picture or pasted object on this page, not shown here)

In a further data set the test system is U373 cells. Nature of the data set: Annexin-V/propidium iodide staining by flow cytometry. Type of data set: cell-based, human. As to conditions: 24 h of treatment. Here is the method: (§1) Cell death induced by compounds 1 and 13 was evaluated by means of the double annexin-V/propidium iodide staining by flow cytometry with the FITC Annexin V apoptosis detection kit from BD Pharmingen (USA) according to the manufacturer’s instructions. Briefly, cells were cultured and treated in 25 cm^2 flasks. At the end of the treatment, all cells (adherent and floating cells) were collected, washed and resuspended at 10^6 cells/mL. 100 µL of the cell suspension were stained with 5 µL of FITC-annexin-V and 5 µL of propidium iodide for 15 min at rt in the dark. 400 µL of buffer were then added before data acquisition of 10,000 events per sample (Gallios, Beckman Coulter, Belgium). Caspase activation is usually evaluated to confirm or not the apoptotic feature of the cell death induced. For this purpose, we used the caspase-3, -8 and 9 multiplex assay (Ab219915, Abcam, UK) following manufacters’ instructions. In this assay, cells were exposed to short peptidic sequences linked to different fluorochromes and that could be specifically cleaved by each of these caspases. This assay thereby allowed simultaneous evaluation of the three caspase activities thanks to the quantification of the three fluorophores released in a SynergyMX plate fluorimeter (Biotek, USA).
In general terms: Flow cytometry measures light scatter and fluorescence of single cells or particles in a stream.

The subject of another data set is caspase-8. The experiment in a line: Caspase multiplex assay, caspase-8 in SKMEL-28. Type of data set: cell-based, human. As to conditions: SKMEL-28 cells, 15 h of treatment. On the procedure:
as §1

The next data set deals with caspase-3. Nature of the data set: Caspase multiplex assay, caspase-3 in SKMEL-28. Type of data set: cell-based, human. As to conditions: SKMEL-28 cells, 15 h of treatment. Here is the method:
as §1

The next data set has as its system caspase-3, -8 and 9. Nature of the data set: Caspase-3, -8 and -9 multiplex assay in U373. Type of data set: cell-based, human. The settings on record: U373 cells, until 24 h of treatment. On the procedure: as §1

As usually defined, the inhibition is the drop in the measured response relative to a control, in per cent. As usually defined, the GI50 is the concentration giving 50% growth inhibition.

The structures appear in SMILES notation.

Chain of chymotrypsin-like activity of the proteasome (P28074 60-263): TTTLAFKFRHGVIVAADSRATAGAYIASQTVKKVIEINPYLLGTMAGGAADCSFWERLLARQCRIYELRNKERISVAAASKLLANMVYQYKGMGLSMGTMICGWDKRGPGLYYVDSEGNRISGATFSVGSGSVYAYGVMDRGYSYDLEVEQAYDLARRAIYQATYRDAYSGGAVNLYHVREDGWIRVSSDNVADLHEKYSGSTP

For the compound `C=C[C@]1(C)C=C2C(=O)[C@@]3(O)OC(=O)[C@@]4(CCCC(C)(C)[C@H]34)[C@@]2(O)CC1` [Compound 1, sphaeropsidin A, reference compound], the “stability in physiological medium” value in data set [1] is recorded as “instability”. Moreover, the “concentration inhibiting NKCC activity” value in the data set with NKCC was “low micromolar”.

Turning to `CC1(C=CCCCc2ccc3ccc4cccc5ccc2c3c45)C=C2C(=O)C3(O)OC(=O)C4(CCCC(C)(C)C34)C2(O)CC1` (stereo not shown) [Compound 13], the reversibility of effects result in the data set with SKMEL-28 and U373 cells is on record as “irreversible”. The compound further had an inhibition at 1 µM in data set [2] of over 60%. The CC50 in data set [3] (NCI 60 cancer cell line panel, read-out: global mean LC50) turned out to be 1500 nM. For the same compound, the GI50 in data set [3] (NCI, 48 h of culture, read-out: mean GI50 against the 60 cancer cell line panel) turned out to be 190 nM. For the same compound, the “cells positive to annexin-V” value in the data set with U373 cells is given as “more than 60%”. Besides, in the data set with caspase-8, the caspase-8 activity result is reported as “markedly increased”. Also, in the data set on caspase-3, the caspase-3 activity result is reported as “markedly increased”. Further, the caspase activation result in the data set on caspase-3, -8 and 9 is reported as “no caspase activation could be detected”.
